In US10695282B2, “Functionalized transition metal dichalcogenides and composition for antioxidation containing the same” (AMOREPACIFIC CORPORATION, priority 2017, dated 2020):

What was measured:
[1] = ABTS assay, antioxidant activity of TMDs functionalized in aqueous solution; assay type: biochemical; conditions: TMDs functionalized with PCL-b-PEO in aqueous solution; absorbance change at 734 nm after 12 hours; FIG. 9A; read-out: IC50 (ABTS radical scavenging)
Description: Specifically, the antioxidant activity of four types of TMDs (MoS2, WS2, MoSe2, and WSe2) functionalized with an amphiphilic block polymer compound in an aqueous solution and Trolox (vitamin E) were measured by an ABTS (2,2′-azino-bis-(3-ethylbenzothiazoline-6-sulfonic acid)) assay.
Specifically, 7 mM 2,2′-azino-bis-(3-ethylbenzothiazoline-6-sulfonic acid) (ABTS) and 2.45 mM potassium persulfate were mixed to make the final concentration and left in a dark place at room temperature for 24 hours. Then, the mixture was diluted with distilled water so that the absorbance value at 734 nm was […]. 100 μl of the sample of each concentration was added to 100 μl of the diluted ABTS radical solution, followed by mixing. After 12 hours, the change of absorbance was measured. The same amount of Trolox as a standard material was added for measurement.

[2] = Photostability of antioxidant activity under solar simulator (ABTS assay); assay type: physicochemical; conditions: after 3 hours, FIG. 9B

SMILES: Cc1c(C)c2c(c(C)c1O)CCC(C)(C(=O)O)O2 (centres unmarked) [Trolox]
- IC50 [1]: 11.7 µM
- antioxidant activity remaining under light [2]: 50%
